The data set can be described thus: Photodeprotection by irradiation with light of 470 nm (absorption spectra, fluorescence). The class given is physicochemical. The conditions noted are these: for Change of absorption peaks around 450 nm with the light irradiation / Change of absorption peaks around 490 nm with the light irradiation (release of 6-hydroxy-9-o-toluylxanthen-3-one by deprotection): 3 μM in 0.1 M sodium phosphate buffer (pH 7.4), 10% N,N-dimethylformamide, light of 470 nm, argon laser, FIG. 1. How it is done: 3,5-DNB-2-Me TG obtained in Example 1 and o-NB-2-Me TG obtained in Example 2 were each dissolved in 0.1 M sodium phosphate buffer (pH 7.4) at a concentration of 3 μM. As a cosolvent, 10% N,N-dimethylformamide was added.
Light of 470 nm was irradiated by using an argon laser. One cycle consisted of 128 pulses×10 times.
It can be understood that the peaks around 450 nm observed for 3,5-DNB-2-Me TG and o-NB-2-Me TG were lowered, and the peaks around 490 nm were highered with the light irradiation. This is because 6-hydroxy-9-o-toluylxanthen-3-one was released from the compounds by deprotection.

Consider `Cc1ccccc1-c1c2ccc(=O)cc-2oc2cc(OCc3cc([N+](=O)[O-])cc([N+](=O)[O-])c3)ccc12` [3,5-DNB-2-Me TG, 6-(3,5-dinitrobenzyloxy)-9-o-toluylxanthen-3-one], for which the “Change of absorption peaks around 450 nm with the light irradiation” value is recorded as “lowered” and the “Change of absorption peaks around 490 nm with the light irradiation (release of 6-hydroxy-9-o-toluylxanthen-3-one by deprotection)” value is “highered”. In addition, the “Fluorescence provided by released 6-hydroxy-9-o-toluylxanthen-3-one on irradiation” value (irradiated with light of 470 nm, FIG. 2) is “increase of fluorescence”.
`Cc1ccccc1-c1c2ccc(=O)cc-2oc2cc(OCc3ccccc3[N+](=O)[O-])ccc12` [o-NB-2-Me TG, 6-(2-nitrobenzyloxy)-9-o-toluylxanthen-3-one]: the “Change of absorption peaks around 450 nm with the light irradiation” value is recorded as “lowered” and the “Change of absorption peaks around 490 nm with the light irradiation (release of 6-hydroxy-9-o-toluylxanthen-3-one by deprotection)” value is given as “highered”.

The record behind these values is patent US20070074967A1, “Photodegradable protective group” (The University of Tokyo, priority 2005, published 2007).
